Assay results as given in PubChem BioAssay AID1963979 (Molecular Pharmacology Branch, DTP, NCI, 2024).

Tested on: 361931-004-R-J1-PDC multicell spheroid viability
Assay: Anticancer human tumor 361931-004-R-J1-PDC patient-derived colon adenocarcinoma cell line growth inhibition [PI3K]
Conditions: for IC50: curve of first compound; for viability, T/C: stronger effect = lower value
How it was run: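 Targeted small molecules plus PI3K inhibitors, half-log dose series from Cmax (default top 10 microM), were applied to heterotypic spheroids of cancer cells with HUVEC and MSCs. Viability indicated growth inhibition.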

[1] = second compound 0.0316 µM, first compound 0.0316 µM
[2] = second compound 0.0316 µM, first compound 0.1 µM
[3] = second compound 0.0316 µM, first compound 0.316 µM
[4] = second compound 0.0316 µM, first compound 1 µM
[5] = second compound 0.1 µM, first compound 0.0316 µM
[6] = second compound 0.1 µM, first compound 0.1 µM
[7] = second compound 0.1 µM, first compound 0.316 µM
[8] = second compound 0.1 µM, first compound 1 µM
[9] = second compound 0.316 µM, first compound 0.0316 µM
[10] = second compound 0.316 µM, first compound 0.1 µM
[11] = second compound 0.316 µM, first compound 0.316 µM
[12] = second compound 0.316 µM, first compound 1 µM
[13] = second compound 1 µM, first compound 0.0316 µM
[14] = second compound 1 µM, first compound 0.1 µM
[15] = second compound 1 µM, first compound 0.316 µM
[16] = second compound 1 µM, first compound 1 µM
[17] = second compound 3.16 µM, first compound 0.0316 µM
[18] = second compound 3.16 µM, first compound 0.1 µM
[19] = second compound 3.16 µM, first compound 0.316 µM
[20] = second compound 3.16 µM, first compound 1 µM
[21] = second compound 10 µM, first compound 0.0316 µM
[22] = second compound 10 µM, first compound 0.1 µM
[23] = second compound 10 µM, first compound 0.316 µM
[24] = second compound 10 µM, first compound 1 µM
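Note: spheroids exposed to agents for seven days before readout.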

CCN1CCN(Cc2ccc(Nc3ncc(F)c(-c4cc(F)c5nc(C)n(C(C)C)c5c4)n3)nc2)CC1 + CC(Nc1ncnc2nc[nH]c12)c1cc2cccc(Cl)c2c(=O)n1-c1ccccc1
IC50 (second compound 0.0316 µM): > 1 µM
IC50 (second compound 0.1 µM): > 1 µM
IC50 (second compound 0.316 µM): > 1 µM
IC50 (second compound 1 µM): > 1 µM
IC50 (second compound 3.16 µM): > 1 µM
IC50 (second compound 10 µM): > 1 µM
viability, T/C (second compound 0.0316 µM, first compound 0.00316 µM): 106%
viability, T/C (second compound 0.0316 µM, first compound 0.01 µM): 103%
viability, T/C [1]: 103%
viability, T/C [2]: 98.8%
viability, T/C [3]: 109%
viability, T/C [4]: 105%
viability, T/C (second compound 0.1 µM, first compound 0.00316 µM): 105%
viability, T/C (second compound 0.1 µM, first compound 0.01 µM): 105%
viability, T/C [5]: 103%
viability, T/C [6]: 97.6%
viability, T/C [7]: 109%
viability, T/C [8]: 100%
viability, T/C (second compound 0.316 µM, first compound 0.00316 µM): 101%
viability, T/C (second compound 0.316 µM, first compound 0.01 µM): 112%
viability, T/C [9]: 102%
viability, T/C [10]: 110%
viability, T/C [11]: 106%
viability, T/C [12]: 91.9%
viability, T/C (second compound 1 µM, first compound 0.00316 µM): 105%
viability, T/C (second compound 1 µM, first compound 0.01 µM): 101%
viability, T/C [13]: 102%
viability, T/C [14]: 104%
viability, T/C [15]: 108%
viability, T/C [16]: 93%
viability, T/C (second compound 3.16 µM, first compound 0.00316 µM): 109%
viability, T/C (second compound 3.16 µM, first compound 0.01 µM): 107%
viability, T/C [17]: 101%
viability, T/C [18]: 104%
viability, T/C [19]: 100%
viability, T/C [20]: 81.8%
viability, T/C (second compound 10 µM, first compound 0.00316 µM): 105%
viability, T/C (second compound 10 µM, first compound 0.01 µM): 102%
viability, T/C [21]: 106%
viability, T/C [22]: 96.5%
viability, T/C [23]: 89.5%
viability, T/C [24]: 69%

CC1(C)CCC(CN2CCN(c3ccc(C(=O)NS(=O)(=O)c4ccc(NCC5CCOCC5)c([N+](=O)[O-])c4)c(Oc4cnc5[nH]ccc5c4)c3)CC2)=C(c2ccc(Cl)cc2)C1 + CC(Nc1ncnc2nc[nH]c12)c1cc2cccc(Cl)c2c(=O)n1-c1ccccc1
IC50 (second compound 0.0316 µM): 5.36 µM
IC50 (second compound 0.1 µM): 5.02 µM
IC50 (second compound 0.316 µM): 5.04 µM
IC50 (second compound 1 µM): 5.15 µM
IC50 (second compound 3.16 µM): 5.25 µM
IC50 (second compound 10 µM): 4.96 µM
viability, T/C [1]: 105%
viability, T/C [2]: 98.3%
viability, T/C [3]: 104%
viability, T/C [4]: 93.4%
viability, T/C (second compound 0.0316 µM, first compound 3.16 µM): 89.4%
viability, T/C (second compound 0.0316 µM, first compound 10 µM): 3.37%
viability, T/C [5]: 110%
viability, T/C [6]: 95.2%
viability, T/C [7]: 97.7%
viability, T/C [8]: 102%
viability, T/C (second compound 0.1 µM, first compound 3.16 µM): 81.2%
viability, T/C (second compound 0.1 µM, first compound 10 µM): 3.38%
viability, T/C [9]: 108%
viability, T/C [10]: 97.2%
viability, T/C [11]: 106%
viability, T/C [12]: 106%
viability, T/C (second compound 0.316 µM, first compound 3.16 µM): 81.7%
viability, T/C (second compound 0.316 µM, first compound 10 µM): 3.3%
viability, T/C [13]: 103%
viability, T/C [14]: 99.2%
viability, T/C [15]: 106%
viability, T/C [16]: 102%
viability, T/C (second compound 1 µM, first compound 3.16 µM): 84%
viability, T/C (second compound 1 µM, first compound 10 µM): 3.62%
viability, T/C [17]: 102%
viability, T/C [18]: 109%
viability, T/C [19]: 96%
viability, T/C [20]: 96.5%
viability, T/C (second compound 3.16 µM, first compound 3.16 µM): 86.8%
viability, T/C (second compound 3.16 µM, first compound 10 µM): 3.29%
viability, T/C [21]: 109%
viability, T/C [22]: 99.6%
viability, T/C [23]: 107%
viability, T/C [24]: 107%
viability, T/C (second compound 10 µM, first compound 3.16 µM): 80.1%
viability, T/C (second compound 10 µM, first compound 10 µM): 3.09%
